Experimental data from patent publication US8835411B2, “HIV integrase inhibitors” (priority 2010, dated 2014).

Tested on: recombinant NL-Rluc virus
Experiment: Inhibition of HIV Replication: recombinant NL-Rluc virus, Renilla luciferase reporter
Assay type: cell-based
Conditions: read-out: Cell Culture, serum condition of the table not stated (10% FBS, 15 mg/ml human serum albumin/10% FBS or 40% human serum/5% FBS), at least 2 experiments

In the case of `CC(=O)NC12CCC(NC(=O)C(=O)N(C)C)(CC1)c1nc(C(=O)NCc3ccc(F)c(C)c3)c(O)c(=O)n1C2` [Example 90], the EC50 is reported as less than 10 nM.
